Experimental findings from patent publication US9447385B2, “Butanol dehydrogenase enzyme from the bacterium Achromobacter xylosoxidans” (BUTAMAX ADVANCED BIOFUELS LLC, priority 2008, dated 2016) are described below.

Experiment [1] relates to A. xylosoxidans butanol dehydrogenase. Conditions: alcohol substrate (oxidation); 35° C., TRIS buffer pH 8.5, 3 mM NAD+; crude enzyme from A. xylosoxidans. The procedure:
Reactions with alcohol substrates were performed at 35° C. in TRIS buffer, pH 8.5, containing 3 mM NAD^+ and varying concentrations of alcohol. Reactions with ketone or aldehyde substrates were performed at 35° C. with 50 mM MES buffer, pH 6.0, 200 μM NADH and varying concentrations of the ketone or aldehyde. Crude enzyme preparations were used, obtained either from A. xylosoxidans or recombinant E. coli strain Mach1/pTrc99a::sadB (described in Example 3 below).

Experiment [2] deals with butanol dehydrogenase from A. xylosoxidans. Put plainly: Activity stain on non-denaturing polyacrylamide gel (MTT/PMS coupled). The experiment is classed as biochemical, Achromobacter xylosoxidans. The following applies: NAD+, MTT, PMS. An excerpt:
The purified enzyme and molecular weight standards were subjected to electrophoresis using non-denaturing polyacrylamide gels (8-16% Tris-Glycine gradient gel, Invitrogen). After electrophoresis, the gels were removed and stained for protein (Simply Blue Protein Stain, Invitrogen) or stained for activity by coupling the conversion of 1-butanol plus NAD^+ to butyraldehyde plus NADH with the conversion of 3 [4,5-dimethylthiazol-2-yl]-2,5-diphenyltetrazolium bromide (MTT) to a deeply colored formazan, using phenazine methosulfate (PMS) as mediator (Tang et al., J. Bacteriol. 140, 182 (1997)). The activity solution contained 0.5 mg PMS, 5 mg MTT, 20 mg NAD^+ and 1 mL of 1-butanol in a total volume of 25 mL.

In experiment [3] the test system is A. xylosoxidans butanol dehydrogenase. Put plainly: Kinetic characterization of butanol dehydrogenase, reduction of ketone or aldehyde substrates. In kind it is biochemical, Achromobacter xylosoxidans. The following applies: 35° C., 50 mM MES pH 6.0, 200 μM NADH. An excerpt: The secondary alcohol dehydrogenase (sadB) from Achromobacter xylosoxidans was cloned into the vector pTrc99a (Amann et al., Gene 69(2):301-315 (1988)). The coding region (SEQ ID NO: 1) was amplified using standard conditions from A. xylosoxidans genomic DNA, prepared using a Gentra Puregene kit (Gentra Systems, Inc., Minneapolis, Minn.; catalog number D-5500A) following the recommended protocol for gram negative organisms using forward and reverse primers N473 and N469 (SEQ ID NOs: 24 and 23). The PCR product was TOPO-Blunt cloned into pCR4 BLUNT (Invitrogen) to produce pCR4Blunt::sadB, which was used to transform E. coli Mach-1 cells. Plasmid DNA was subsequently isolated from four clones, and the sequence verified. The plasmid was then digested with EcoRI, releasing the sadB fragment, which was ligated with EcoRI-digested pTrc99a to generate pTrc99a::sadB. The E. coli Mach 1 cells were transformed with the plasmid and the resulting transformant was named Mach1/pTrc99a::sadB.

Setting [4] is: ketone or aldehyde substrate (reduction), crude enzyme from A. xylosoxidans.
[5] abbreviates: aldehyde substrate (reduction), crude enzyme from E. coli strain Mach1/pTrc99a.

Where two headings read alike, the source gives them in different places.

Consider 1-Butanol, for which, in experiment [1], the Km (as a rule, the substrate concentration at which the rate is half of its maximum) came to 4.6 mM and the maximum rate (Vmax) (as a rule, the rate approached at saturating substrate) came to 0.02 µmol/min.
Turning to `CCC(C)O` (stereo not drawn) [2-Butanol], in experiment [1], the Michaelis-Menten constant (Km) stood at 0.3 mM and the maximal velocity (Vmax) was 0.22 µmol/min. For the same compound, the “activity staining of the enzyme band with the alcohol as substrate” value in experiment [2] is listed as “active”.
As for `CCC(C)=O` [2-Butanone], in experiment [3] (setting [4]), the Km worked out at 0.5 mM and the maximum rate (Vmax) was determined as 0.35 µmol/min.
The matching figures for `CCCC=O` [Butyraldehyde]: 7.3 mM and 0.67 µmol/min.
In the case of `CC(C)C=O` [Isobutyraldehyde], in experiment [3] (setting [5]), the Km was found to be 1.9 mM and the maximum rate (Vmax) came to 1.1 µmol/min.
As to `CC(C)CO` [isobutanol], the “activity staining of the enzyme band with the alcohol as substrate” value in experiment [2] is “active”.
